From patent US20190233884A1 (University of Southern California, priority 2016, published 2019)

System: patients with refractory metastatic colorectal cancer (mCRC)
Experiment: PFS, OS and disease control in the training (evaluation) cohort of refractory mCRC patients receiving TAS-102 (n=52, Japan), by baseline characteristics, SNP genotype and toxicity
Format: in vivo, human
Method: All patients underwent the treatment in salvage-line setting. […]
(§1) Genomic DNA was extracted from peripheral whole blood in patients of all cohorts using the QIAmp Kit (Qiagen, Valencia, Calif., USA) according to the manufacturer's protocol (www.qiagen.com). The candidate SNPs were genotyped using PCR-based direct DNA sequence analysis by ABI 3100A Capillary Genetic Analyzer and Sequencing Scanner v1.0 (Applied Biosystems). Amplification of extracted DNA was carried out using both forward and reverse primers for each gene polymorphism as shown in Table 1. […] The investigators analyzing SNPs were blinded to the clinical data of the study patients.
The primary endpoint in this study was progression-free survival (PFS), and the secondary endpoints were overall survival (OS) and disease control rate (DCR). PFS was calculated from the date of starting treatment to the first observation of disease progression or death from any cause. If a patient had no disease progression or death, PFS was censored at the date of last follow up. OS was calculated from the date of starting treatment until the date of death from any cause or the date of the last follow-up, at which point OS was censored. The disease control rate (DCR) was defined as the proportion of patients who achieved a stable disease (SD) or […] according to RECISTv1.1. Chi-square test was used to examine the difference in baseline patient characteristics among the three cohorts. Allelic distribution of all SNPs by ethnicity for deviation from Hardy-Weinberg equilibrium and the allelic frequencies of SNPs were tested using the Chi-square tests with one degree of freedom. The associations between candidate SNPs and disease control, and toxicities were examined using contingency tables and Fisher's exact test. The associations of SNPs with PFS and OS were analysed using Kaplan-Meier curves and the log-rank test. Because the true mode of inheritance of candidate SNPs was not established yet, a codominant or dominant genetic model if appropriate was considered.
All patients underwent the treatment in salvage-line setting. […] In all patients, adverse events were graded according to the Common Terminology Criteria for Adverse Events, version 4.0. […]
as §1, with “tested” for “genotyped”, “Biosystems).” for “Biosystems). Amplification of extracted DNA was carried out using both forward and reverse primers for each gene polymorphism as shown in Table 1.”, “data.” for “data of the study patients.”
The primary endpoint in this study was progression-free survival (PFS), and the secondary endpoints were overall survival (OS) and disease control rate (DCR).

[1] = training cohort, OCT2 rs316019 C/C
[2] = training cohort, hENT1 + OCT2/MATE1 classification: Fair
[3] = training cohort, hENT1rs750370_19 Excellent
[4] = training cohort, hENT1rs750370_19 Faire
[5] = training cohort, hENT1rs750370_19 Faire vs Poor
[6] = training cohort, hENT1rs750370_19 Good
[7] = training cohort, hENT1rs750370_19 Good and Excellent combined
[8] = training cohort, hENT1rs750370_19 Good and Excellent combined vs Poor
[9] = training cohort, hENT1rs750370_19 Poor
[10] = training cohort, hENT1 rs760370, multivariate adjusted for liver metastases and adjuvant history
[11] = training cohort, hENT1 rs760370 A/A
[12] = training cohort, hENT1 rs760370 A/G
[13] = training cohort, hENT1 rs760370 A/G and G/G combined
[14] = training cohort, hENT1 rs760370 A/G and G/G combined vs A/A
[15] = training cohort, hENT1 rs760370 G/G
[16] = training cohort, hENT1 rs760370 any G allele
[17] = training cohort, hENT1 rs760370 any G vs A/A, univariate
[18] = training cohort, hENT1 rs9394992 C/C
[19] = training cohort, hENT1 rs9394992 C/T
[20] = training cohort, hENT1 rs9394992 C/T and T/T combined
[21] = training cohort, hENT1 rs9394992 C/T and T/T combined vs C/C
[22] = training cohort, hENT1 rs9394992 T/T
[23] = training cohort, hENT1 rs9394992 any T allele
[24] = training cohort, hENT1 rs9394992 any T vs C/C, univariate
[25] = training/evaluation cohort, grade 3≤ neutropenia vs less than grade 3, univariate
[26] = training/evaluation cohort, neutropenia less than grade 3 (n=32)
[27] = training/evaluation cohort, patients with grade 3≤ neutropenia (n=20)
[28] = whole training (evaluation) cohort

Substance: Trifluridine/tipiracil [TAS-102]
- Progression-free Survival HR (95% CI) univariate (training cohort, OCT2 rs316019 C/A and A/A combined vs C/C): 0.74 (0.35, 1.52)
- Disease Control Rate PD [1]: 24 (73%)
- Disease Control Rate SD [1]: 9 (27%)
- Overall Survival Median, months (95% CI) [1]: 8.1 (5.7, 12.4) months
- Progression-free Survival Median, months (95% CI) [1]: 2.5 (2.1, 3.4) months
- Progression-free Survival HR (95% CI) multivariate (training cohort, adjusted for liver metastasis and adjuvant history, CNT1 rs2290272 A/A genotype): 1.01 (0.38, 2.68)
- Progression-free Survival HR (95% CI) multivariate (training cohort, adjusted for liver metastasis and adjuvant history, CNT1 rs2290272 G/A genotype): 0.64 (0.29, 1.39)
- Progression-free Survival HR (95% CI) multivariate (training cohort, adjusted for liver metastasis and adjuvant history, CNT1 rs2290272 any A allele): 0.71 (0.33, 1.50)
- Progression-free Survival HR (95% CI) multivariate (training cohort, adjusted for liver metastasis and adjuvant history, MATE2 rs16960360 A/C or C/C genotype): 1.07 (0.55, 2.07)
- Progression-free Survival HR (95% CI) multivariate (training cohort, adjusted for liver metastasis and adjuvant history, OCT2 rs316000 A/G or G/G genotype): 1.11 (0.48, 2.56)
- Progression-free Survival HR (95% CI) multivariate (training cohort, adjusted for liver metastasis and adjuvant history, TK1 rs1065769 C/T or T/T genotype): 1.13 (0.58, 2.18)
- OS (training cohort, grade 2< neutropenia (so in the source)): 8.3 months
- HR for OS (training cohort, grade 2< vs grade 2> neutropenia): 0.41
- OS (training cohort, grade 2> neutropenia (so in the source)): 4.4 months
- OS [2]: 7.2
- PFS [2]: 2.1 months
- PFS (training cohort, hENT1 + OCT2/MATE1 classification: Good or Excellent): 3.5 months
- OS (training cohort, hENT1 + OCT2/MATE1 classification: Good or Excellent (third value as printed)): 3.4
- OS (training cohort, hENT1 + OCT2/MATE1 classification: Poor (first value)): 8.7
- Disease Control Rate PD [3]: 10 (50%)
- Disease Control Rate SD [3]: 10 (50%)
- Overall Survival Median, months (95% CI) [4]: 7.2 (2.7, 14.8) months
- Progression-free Survival Median, months (95% CI) [4]: 2.1 (1.6, 4.1) months
- Overall Survival HR (95% CI) multivariate [5]: 0.37 (0.11, 1.23)
- Overall Survival HR (95% CI) univariate [5]: 0.37 (0.12, 1.16)
- Progression-free Survival HR (95% CI) multivariate [5]: 0.48 (0.20, 1.16)
- Progression-free Survival HR (95% CI) univariate [5]: 0.42 (0.17, 1.03)
- Disease Control Rate PD [6]: 2 (67%)
- Disease Control Rate SD [6]: 1 (33%)
- Overall Survival Median, months (95% CI) [7]: 8.7 (8.1, 15.6) months
- Progression-free Survival Median, months (95% CI) [7]: 3.5 (2.5, 4.6) months
- Overall Survival HR (95% CI) multivariate [8]: 0.08 (0.02, 0.41)
- Overall Survival HR (95% CI) univariate [8]: 0.14 (0.04, 0.48)
- Progression-free Survival HR (95% CI) multivariate [8]: 0.28 (0.11, 0.55)
- Progression-free Survival HR (95% CI) univariate [8]: 0.26 (0.11, 0.59)
- Disease Control Rate PD [9]: 9 (100%)
- Disease Control Rate SD [9]: 0
- Overall Survival Median, months (95% CI) [9]: 3.4 (2.7, 6.5) months
- Progression-free Survival Median, months (95% CI) [9]: 1.6 (0.9, 2.9) months
- PFS (training cohort, hENT1 rs760370 + OCT2 rs316019/MATE1 rs2289669 classification: Poor): 1.6 months
- HR for OS [10]: 0.27
- HR for PFS [10]: 0.44
- Disease Control Rate PD [11]: 19 (83%)
- Disease Control Rate SD [11]: 4 (17%)
- OS [11]: 5.3 months
- Overall Survival Median, months (95% CI) [11]: 5.3 (3.1, 12.4) months
- PFS [11]: 2.1 months
- Progression-free Survival Median, months (95% CI) [11]: 2.1 (1.6, 2.9) months
- Disease Control Rate PD [12]: 11 (55%)
- Disease Control Rate SD [12]: 9 (45%)
- Overall Survival Median, months (95% CI) [13]: 8.7 (8.1, 15.6+) months
- Progression-free Survival Median, months (95% CI) [13]: 3.5 (2.5, 4.6) months
- Overall Survival HR (95% CI) multivariate [14]: 0.17 (0.05, 0.63)
- Overall Survival HR (95% CI) univariate [14]: 0.27 (0.10, 0.70)
- Progression-free Survival HR (95% CI) multivariate [14]: 0.44 (0.22, 0.89)
- Progression-free Survival HR (95% CI) univariate [14]: 0.44 (0.23, 0.83)
- Disease Control Rate PD [15]: 1 (33%)
- Disease Control Rate SD [15]: 2 (67%)
- OS [16]: 8.7 months
- PFS [16]: 3.5 months
- HR for OS [17]: 0.27
- HR for PFS [17]: 0.44
- HR for PFS (training cohort, hENT1 rs9394992, multivariate adjusted for liver metastases and adjuvant history): 0.44
- Disease Control Rate PD [18]: 15 (83%)
- Disease Control Rate SD [18]: 3 (17%)
- OS [18]: 4.4 months
- Overall Survival Median, months (95% CI) [18]: 4.4 (2.7, 7.2) months
- PFS [18]: 1.9 months
- Progression-free Survival Median, months (95% CI) [18]: 1.9 (1.6, 2.7) months
- Disease Control Rate PD [19]: 14 (64%)
- Disease Control Rate SD [19]: 8 (36%)
- Overall Survival Median, months (95% CI) [20]: 8.7 (8.1, 15.6+) months
- Progression-free Survival Median, months (95% CI) [20]: 3.4 (2.3, 4.4) months
- Overall Survival HR (95% CI) multivariate [21]: 0.20 (0.08, 0.51)
- Overall Survival HR (95% CI) univariate [21]: 0.21 (0.08, 0.51)
- Progression-free Survival HR (95% CI) multivariate [21]: 0.44 (0.23, 0.86)
- Progression-free Survival HR (95% CI) univariate [21]: 0.48 (0.25, 0.91)
- Disease Control Rate PD [22]: 2 (33%)
- Disease Control Rate SD [22]: 4 (67%)
- OS [23]: 8.7 months
- PFS [23]: 3.4 months
- HR for OS [24]: 0.21
- HR for PFS [24]: 0.48
- HR for OS [25]: 0.59
- HR for PFS [25]: 0.68
- OS [26]: 6.3 months
- PFS [26]: 2.1 months
- OS [27]: 8.3 months
- PFS [27]: 3.4 months
- Median OS [28]: 8.0 months
- Median PFS [28]: 2.6 months
